From patent US9156816B2 (priority 2010, dated 2015) come the findings set out here.

Each structure is given as a SMILES string.

Data set [1] has as its system Pythium ultimum. As to the kind of experiment: Cucumber damping-off (PU) control test. It counts as in vivo. The conditions noted are these: Globisporangium ultimum, 168 h, soil irrigated with 30 ml emulsion at active ingredient concentration of 100 ppm, ratio of healthy seedlings on day 7 after planting vs untreated group. As to the method:
40 ml of sterile soil were placed in plastic cups followed by leveling the surface of the soil. The soil was then irrigated with 30 ml of the aforementioned emulsion of Preparation Example 2 at an active ingredient concentration of 100 ppm. Following irrigation, cucumbers (variety: Sagami Hanjiro) were planted in the soil and covered with 20 ml of contaminated soil (containing Pythium ultimum) from above. The cups were then placed in plastic bags and allowed to stand undisturbed for 3 days in a constant temperature room at 25° C. (dark location […]). Next, the plants were removed from the bags and held in a constant temperature room at 25° C. using a light-dark cycle of 12 hours. On day 7 after planting, the ratios of healthy seedlings were compared between an untreated group and treated group to calculate control effects (control values).

The subject of data set [2] is tomato late blight pathogen (Phytophthora infestans). The data set can be described thus: whole plant or invertebrate. It counts as in vivo. The conditions noted are these: 96 h, read-out: control value.
Data set [3] deals with Pythium aphanidermatum. As to the kind of experiment: Antimicrobial test (mycelia growth inhibition). It counts as cell-based. As to conditions: compound concentration of 1 ppm, PSY medium, 25° C., days 3 to 7 of culturing, read-out: mycelia growth inhibition rate. As to the method: The compound according to the present invention was dissolved in dimethylsulfoxide and diluted to double the prescribed concentration in a 96-well microplate using PSY medium to obtain a drug solution. On the other hand, a diluted dimethylsulfoxide solution was prepared using PSY medium for use as an untreated group.
A suspension of liquid-cultured test microorganisms (Pythium aphanidermatum) was mixed with an equal volume of the drug solution and cultured in a dark location at 25° C. Mycelia growth was observed on days 3 to 7 of culturing to determine mycelia growth inhibition rates.

Broadly, the melting point is the temperature, or range, at which the solid turns liquid. Usually inhibition stands for how much of the control response was suppressed. In turn, `COC(OC)C(=O)Nc1cccc(CO/N=C(/c2ccccc2)c2nnnn2C)n1` [a-3] gave a melting point of 88 to 90 °C. For the same compound, in data set [1], the pest or weed control at 100 ppm was ≥ 50%. In addition, the pest or weed control at 100 µg/mL in data set [2] was ≥ 70%. In addition, in data set [3], the inhibition at 1 ppm is ≥ 50%.
Turning to `Cn1nnnc1/C(=N\OCc1cccc(NC(=O)CC2OCCCO2)n1)c1ccccc1` [a-14], the melting point was in the range of 107 to 108 °C. In addition, the pest or weed control at 100 ppm in data set [1] is ≥ 50%. Also, the pest or weed control at 100 µg/mL in data set [2] was ≥ 70%. The inhibition at 1 ppm in data set [3] was ≥ 50%.
For `CCOC(C)(OCC)C(=O)Nc1cccc(CO/N=C(/c2ccccc2)c2nnnn2C)n1.Cl` [a-33], the melting point lay within 70 to 73 °C. Moreover, in data set [3], the inhibition at 1 ppm was ≥ 50%.
Compound `COCC(C)C(=O)Nc1cccc(CO/N=C(/c2ccccc2)c2nnnn2C)n1` (centres unmarked) [b-3] came in with a melting point of 66 to 68 °C. For the same compound, the pest or weed control at 100 ppm in data set [1] was ≥ 50%. The inhibition at 1 ppm in data set [3] is ≥ 50%.
As to `COC(C)(C)C(=O)Nc1cccc(CO/N=C(/c2ccccc2)c2nnnn2C)n1` [b-6], the melting point is 104 to 105 °C. Besides, the inhibition at 1 ppm in data set [3] is ≥ 50%.
As for `Cn1nnnc1/C(=N\OCc1cccc(NC(=O)C(C)(C)O)n1)c1ccccc1` [b-7], the melting point is 144 to 146 °C. Moreover, the inhibition at 1 ppm in data set [3] was ≥ 50%.
Consider `COCC(C)(C)C(=O)Nc1cccc(CO/N=C(/c2ccccc2)c2nnnn2C)n1` [b-8], for which the melting point was 60 to 61 °C. Further, the pest or weed control at 100 ppm in data set [1] was ≥ 50%. Further, the inhibition at 1 ppm in data set [3] is ≥ 50%.
`COCCC(C)(C)C(=O)Nc1cccc(CO/N=C(/c2ccccc2)c2nnnn2C)n1` [b-10]: the melting point is 86 to 87 °C. For the same compound, the pest or weed control at 100 ppm in data set [1] is ≥ 50%. For the same compound, the inhibition at 1 ppm in data set [3] is ≥ 50%.
The compound `Cn1nnnc1/C(=N\OCc1cccc(NC(=O)OCC2COCO2)n1)c1ccccc1` (centres unmarked) [c-4] gave a melting point of 104 to 105 °C. In addition, the pest or weed control at 100 ppm in data set [1] was ≥ 50%. The pest or weed control at 100 µg/mL in data set [2] was ≥ 70%. Further, the inhibition at 1 ppm in data set [3] is ≥ 50%.
For `CCOC(OC(=O)Nc1cccc(CO/N=C(/c2ccccc2)c2nnnn2C)n1)C(F)(F)F` (stereo not drawn) [d-1], the melting point lay in the range of 123 to 124 °C. In addition, the pest or weed control at 100 µg/mL in data set [2] is ≥ 70%. Also, in data set [3], the inhibition at 1 ppm was ≥ 50%.
Regarding `Cn1nnnc1/C(=N\OCc1cccc(NC(=O)OC2CCOCC2)n1)c1ccccc1` [d-3], the melting point lay within 72 to 73 °C. Further, the pest or weed control at 100 µg/mL in data set [2] is ≥ 70%. Further, the inhibition at 1 ppm in data set [3] is ≥ 50%.
`Cn1nnnc1/C(=N\OCc1cccc(NC(=O)OC2CCOC2)n1)c1ccccc1` (stereo not drawn) [d-4] returned a melting point of 76 to 78 °C. Also, the pest or weed control at 100 µg/mL in data set [2] is ≥ 70%.
